The target in series [1] is T1, cM5 mAChR (Pan troglodytes, UniProt Q5IS53).
T1 sequence (Q5IS53 1-532): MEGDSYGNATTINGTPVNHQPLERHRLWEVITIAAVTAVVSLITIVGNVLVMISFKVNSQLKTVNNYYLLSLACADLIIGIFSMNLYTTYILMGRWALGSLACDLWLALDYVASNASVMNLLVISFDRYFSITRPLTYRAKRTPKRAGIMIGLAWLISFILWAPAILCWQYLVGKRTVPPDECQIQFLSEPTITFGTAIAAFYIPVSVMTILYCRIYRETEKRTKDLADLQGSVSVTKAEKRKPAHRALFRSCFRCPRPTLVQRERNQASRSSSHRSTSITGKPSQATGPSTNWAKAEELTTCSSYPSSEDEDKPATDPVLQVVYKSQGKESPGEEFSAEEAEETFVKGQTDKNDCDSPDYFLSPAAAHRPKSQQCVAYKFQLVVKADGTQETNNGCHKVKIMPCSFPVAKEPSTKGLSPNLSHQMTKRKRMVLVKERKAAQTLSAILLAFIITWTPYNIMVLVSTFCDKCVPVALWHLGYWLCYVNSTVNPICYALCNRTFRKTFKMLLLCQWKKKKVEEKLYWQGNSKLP
Kind of series: Inhibition of agonist-stimulated calcium mobilization. The format is cell-based, chimpanzee.

Series [2] relates to rat isolated tracheal tissue. Kind of series: Antagonism of ACh-evoked contraction: potency and offset time.
Series [3] deals with T2, hM2 mAChR (Homo sapiens, UniProt P08172).
T2 sequence (P08172 1-466): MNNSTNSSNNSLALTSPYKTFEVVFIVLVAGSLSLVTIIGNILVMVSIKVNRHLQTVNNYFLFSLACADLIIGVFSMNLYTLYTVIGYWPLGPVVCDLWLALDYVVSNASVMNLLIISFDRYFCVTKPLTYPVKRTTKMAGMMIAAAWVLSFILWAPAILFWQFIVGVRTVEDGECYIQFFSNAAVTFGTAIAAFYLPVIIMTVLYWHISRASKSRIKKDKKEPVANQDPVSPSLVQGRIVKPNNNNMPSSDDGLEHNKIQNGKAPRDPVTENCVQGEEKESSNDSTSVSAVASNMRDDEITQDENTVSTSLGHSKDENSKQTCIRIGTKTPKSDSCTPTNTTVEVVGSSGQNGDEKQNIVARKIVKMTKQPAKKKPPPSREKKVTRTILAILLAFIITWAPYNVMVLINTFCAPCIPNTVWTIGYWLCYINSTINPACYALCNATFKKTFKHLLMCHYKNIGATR
The settings on record: cited from earlier work.

Series [4] concerns the target T3, hM3 mAChR (Homo sapiens, UniProt P20309). The settings on record: cited from earlier work.
The subject of series [5] is human isolated bronchial tissue. Particulars: human bronchus, carbachol; cited from earlier work.
The target of series [6] is T4, hM4 mAChR (Homo sapiens, UniProt P08173).
T4 sequence (P08173 1-479): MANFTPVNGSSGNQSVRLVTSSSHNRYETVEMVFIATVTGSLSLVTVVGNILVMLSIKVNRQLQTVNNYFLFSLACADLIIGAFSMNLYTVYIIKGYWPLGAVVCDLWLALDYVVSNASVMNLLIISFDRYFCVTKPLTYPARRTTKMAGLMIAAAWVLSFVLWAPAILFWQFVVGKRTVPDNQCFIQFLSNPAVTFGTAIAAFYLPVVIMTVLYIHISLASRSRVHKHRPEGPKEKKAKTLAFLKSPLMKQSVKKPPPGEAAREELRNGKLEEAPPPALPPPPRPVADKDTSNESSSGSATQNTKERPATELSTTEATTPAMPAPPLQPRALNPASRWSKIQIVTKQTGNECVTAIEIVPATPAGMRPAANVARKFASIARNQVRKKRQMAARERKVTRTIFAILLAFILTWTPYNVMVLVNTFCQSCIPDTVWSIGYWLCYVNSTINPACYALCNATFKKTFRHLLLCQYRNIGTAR
As to the kind of experiment: Competition radioligand binding, [^3H]NMS.

Series [7] relates to panel of 81 receptors, enzymes, and channels. As to the kind of experiment: Off-target panel screen. It is filed as binding. The settings on record: 1 μmol L^−1.
The target of series [8] is T2, hM2 mAChR. Kind of series: Association and dissociation binding kinetics. The settings on record: 37°C.
The subject of series [9] is human isolated bronchial tissue. Kind of series: Antagonism of carbachol-evoked contraction: potency and offset time. The settings on record: superfusion washout, 10‐100 nmol·L^−1, 1 μmol L^−1 CCh, 10 hours perfusion.
Series [10] deals with T5, hM1 mAChR (Homo sapiens, UniProt P11229).
T5 sequence (P11229 1-460): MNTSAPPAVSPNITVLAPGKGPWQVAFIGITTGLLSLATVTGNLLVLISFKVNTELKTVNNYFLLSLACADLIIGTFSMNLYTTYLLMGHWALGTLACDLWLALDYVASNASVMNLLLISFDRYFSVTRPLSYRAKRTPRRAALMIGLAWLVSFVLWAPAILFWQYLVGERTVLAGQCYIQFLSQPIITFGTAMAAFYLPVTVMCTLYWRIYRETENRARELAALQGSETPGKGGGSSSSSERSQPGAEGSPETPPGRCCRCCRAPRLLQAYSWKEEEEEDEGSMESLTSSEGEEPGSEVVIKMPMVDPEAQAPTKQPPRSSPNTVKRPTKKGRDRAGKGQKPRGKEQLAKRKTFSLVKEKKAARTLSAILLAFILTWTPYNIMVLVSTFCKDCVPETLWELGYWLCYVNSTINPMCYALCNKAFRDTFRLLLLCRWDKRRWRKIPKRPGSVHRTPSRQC
As to the kind of experiment: Competition radioligand binding, [^3H]NMS.

The subject of series [11] is bronchoconstrictor response to ACh or methacholine (MCh). Particulars: rats, inhalation dosing; cited from earlier work.
The target of series [12] is T2, hM2 mAChR. As to the kind of experiment: Inhibition of agonist-stimulated [^35S]GTPγS binding, CHO-K1 membranes. The format is biochemical. Particulars: absence of agonist.
Series [13] concerns bronchoconstrictor response to ACh or methacholine (MCh). Particulars: dogs, inhalation dosing; cited from earlier work.
In series [14] the test system is guinea pig isolated trachea. As to the kind of experiment: Inhibition of EFS contraction: potency and offset time. The settings on record: IC90 concentration, washout.
For series [15], the target named is cloned human 5‐HT4(C) receptors (Homo sapiens, UniProt Q13639). As to the kind of experiment: 5-HT4 agonist assay. The format is cell-based.
In series [16] the target is T6, hM5 mAChR (Homo sapiens, UniProt P08912).
T6 sequence (P08912 1-532): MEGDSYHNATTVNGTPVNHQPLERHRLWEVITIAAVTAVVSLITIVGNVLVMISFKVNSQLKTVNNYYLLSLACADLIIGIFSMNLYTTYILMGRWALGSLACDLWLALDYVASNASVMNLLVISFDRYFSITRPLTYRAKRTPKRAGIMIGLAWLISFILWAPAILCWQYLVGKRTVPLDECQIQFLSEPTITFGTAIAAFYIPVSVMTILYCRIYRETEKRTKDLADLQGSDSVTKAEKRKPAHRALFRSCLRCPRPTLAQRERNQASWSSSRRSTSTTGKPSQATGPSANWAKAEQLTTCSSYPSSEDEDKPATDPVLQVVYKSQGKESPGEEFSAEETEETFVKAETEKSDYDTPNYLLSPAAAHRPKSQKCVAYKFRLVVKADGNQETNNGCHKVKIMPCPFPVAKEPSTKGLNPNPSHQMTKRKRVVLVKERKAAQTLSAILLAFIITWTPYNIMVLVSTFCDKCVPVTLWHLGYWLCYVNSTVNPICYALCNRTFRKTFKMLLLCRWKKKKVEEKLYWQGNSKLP
Kind of series: Competition radioligand binding, [^3H]NMS.

Series [17] concerns the target T3, hM3 mAChR. As to the kind of experiment: Reversibility of antagonism of ACh-induced calcium mobilization, CHO-K1 cells. The format is cell-based.
In series [18] the target is T3, hM3 mAChR. Kind of series: Saturation radioligand binding.
For series [19], the target named is histamine H1 receptor (Cavia porcellus, UniProt P31389). Kind of series: H1 radioligand binding, concentration-response. The settings on record: selectivity hM3 over H1.
For series [20], the target named is T6, hM5 mAChR. Kind of series: Saturation radioligand binding.
For series [21], the target named is T7, hM4‐Gα16 mAChR (Homo sapiens, UniProt P08173).
T7 sequence (P08173 1-479): T4 sequence (P08173 1-479)
As to the kind of experiment: Inhibition of agonist-stimulated calcium mobilization. The format is cell-based.

In series [22] the test system is COPD patients. Particulars: nebulized, once‐daily dosing; cited from earlier work.
In series [23] the target is T5, hM1 mAChR. Kind of series: Inhibition of agonist-stimulated calcium mobilization. The format is cell-based.
For series [24], the target named is Guinea Pig H1 (central) (Cavia porcellus, UniProt P31389). As to the kind of experiment: Off-target panel radioligand binding. The settings on record: read-out: % Inhibition Specific Binding (1 µM).
Series [25] deals with T3, hM3 mAChR. As to the kind of experiment: Competition radioligand binding, [^3H]NMS. The settings on record: hM3 pKI, [^3H]NMS competition, CHO-K1 membranes, 37°C; mean ± SD.
For series [26], the target named is T3, hM3 mAChR. As to the kind of experiment: Inhibition of agonist-stimulated calcium mobilization. It is filed as cell-based.
The target of series [27] is T5, hM1 mAChR. As to the kind of experiment: Saturation radioligand binding.
In series [28] the target is T4, hM4 mAChR. Kind of series: Saturation radioligand binding.
Series [29] concerns the target T3, hM3 mAChR. Kind of series: Association and dissociation binding kinetics.
The mark [30] stands for this setting: tested alone in cells expressing mAChRs.

Values joined by “and” are separate entries in the source; they are usually repeats but may differ in a detail not shown here. Equal entries are not always repeated. Where two headings read alike, the source gives them in different places.

T3 sequence (P20309 whole entry): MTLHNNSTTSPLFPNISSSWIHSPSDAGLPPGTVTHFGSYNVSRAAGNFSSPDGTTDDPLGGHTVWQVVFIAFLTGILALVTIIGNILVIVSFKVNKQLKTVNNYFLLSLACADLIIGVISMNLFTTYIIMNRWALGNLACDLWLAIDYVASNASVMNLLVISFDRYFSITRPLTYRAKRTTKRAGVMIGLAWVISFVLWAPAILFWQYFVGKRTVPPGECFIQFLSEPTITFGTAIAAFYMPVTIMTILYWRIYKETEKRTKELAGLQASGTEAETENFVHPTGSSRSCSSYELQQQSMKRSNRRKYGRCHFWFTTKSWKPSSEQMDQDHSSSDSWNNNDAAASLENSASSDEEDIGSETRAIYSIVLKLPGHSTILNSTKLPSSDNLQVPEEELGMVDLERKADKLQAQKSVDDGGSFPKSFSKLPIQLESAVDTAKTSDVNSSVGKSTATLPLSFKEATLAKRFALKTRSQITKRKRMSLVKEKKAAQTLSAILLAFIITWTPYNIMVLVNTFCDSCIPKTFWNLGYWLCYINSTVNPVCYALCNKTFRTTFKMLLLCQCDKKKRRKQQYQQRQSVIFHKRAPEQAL
cloned human 5‐HT4(C) receptors, sequence (Q13639 1-380 isoform Q13639-4): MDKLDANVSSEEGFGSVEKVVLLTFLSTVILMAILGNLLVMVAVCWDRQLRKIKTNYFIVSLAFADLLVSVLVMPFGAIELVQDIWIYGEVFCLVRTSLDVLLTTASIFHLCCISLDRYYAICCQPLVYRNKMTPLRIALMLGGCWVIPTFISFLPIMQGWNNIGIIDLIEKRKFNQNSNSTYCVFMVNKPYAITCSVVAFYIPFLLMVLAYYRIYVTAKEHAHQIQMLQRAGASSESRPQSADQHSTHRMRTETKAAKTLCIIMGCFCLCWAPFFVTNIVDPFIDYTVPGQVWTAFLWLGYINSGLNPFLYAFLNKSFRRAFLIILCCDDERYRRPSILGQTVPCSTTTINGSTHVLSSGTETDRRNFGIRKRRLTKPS
histamine H1 receptor, sequence (P31389 whole entry): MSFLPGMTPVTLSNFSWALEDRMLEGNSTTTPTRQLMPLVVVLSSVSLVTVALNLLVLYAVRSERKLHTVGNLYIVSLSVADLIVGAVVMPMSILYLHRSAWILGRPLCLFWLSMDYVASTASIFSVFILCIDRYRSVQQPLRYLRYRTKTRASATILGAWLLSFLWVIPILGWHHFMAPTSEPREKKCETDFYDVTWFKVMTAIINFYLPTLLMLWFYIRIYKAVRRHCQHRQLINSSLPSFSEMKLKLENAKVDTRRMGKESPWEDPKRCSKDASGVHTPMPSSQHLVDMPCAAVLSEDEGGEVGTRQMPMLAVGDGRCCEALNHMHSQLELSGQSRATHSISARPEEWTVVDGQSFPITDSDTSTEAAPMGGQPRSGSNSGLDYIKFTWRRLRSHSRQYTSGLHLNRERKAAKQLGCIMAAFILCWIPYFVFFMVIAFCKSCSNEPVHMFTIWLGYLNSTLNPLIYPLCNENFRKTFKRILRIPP
Guinea Pig H1 (central), sequence (P31389 whole entry): as above

As for `CC(C)[N+]1(C)[C@@H]2CC[C@H]1C[C@@H](OC(=O)C(CO)c1ccccc1)C2` (stereo partly drawn) [Ipratropium, reference compound], the inhibitory constant (Ki) in [1] is 0.191 nM. This molecule returned a pA2 in series [2] (ACh contraction, surmountable antagonist) of 9.2 ± 0.1. Further, in series [3], the “dissociation from hM2 receptors” value is listed as “dissociate rapidly”. In addition, the “dissociation from hM3 receptors” value in series [4] was “dissociate rapidly”. In addition, in series [5], the nature of antagonism result is listed as “surmountable antagonism”.

Turning to `CN(CCN1CCC(OC(=O)Nc2ccccc2-c2ccccc2)CC1)C(=O)c1ccc(CN2CCC(C(N)=O)CC2)cc1` [Revefenacin, biphenyl‐2‐ylcarbamic acid 1‐(2‐{[4‐(4‐carbamoylpiperidin‐1‐ylmethyl)benzoyl]methylamino}ethyl)piperidin‐4‐yl ester], the Ki is 0.56 nM in series [6] (hM4 KI, [^3H]NMS competition, from IC50 by Cheng and Prusoff); 0.55 nM in [6] (hM4 pKI, [^3H]NMS competition, CHO-K1 membranes, 37°C, mean ± SD); 0.417 nM in series [10]; 0.363 nM in series [1]; 6.7 nM in series [16] (hM5 KI, [^3H]NMS competition, from IC50 by Cheng and Prusoff); 6.31 nM in series [16] (hM5 pKI, [^3H]NMS competition, CHO-K1 membranes, 37°C, mean ± SD). Further, the inhibition constant (Ki) was 0.0112 nM in series [21]; 0.126 nM in series [23]; 0.2 nM and 0.178 nM in series [25]; 0.0955 nM in series [26]. For the same molecule, in [7], the “activity at a majority of the targets” value was below 75%. For the same molecule, the “dissociation t 1/2 M2” value in series [8] came to 6.9 min. In addition, the “offset t 1/2” value in series [9] was above 10 h; in series [14], above 16 h; in series [2] (IC90 concentration, washout, time for response to recover by 50%) it was 13.3 h. For the same molecule, the “Ca^2+ response when tested alone (agonist activity), cM5” value in [1] (setting [30]) was “no Ca^2+ response”. In addition, the “duration of bronchoprotective effect” value in series [11] and in series [13] was at least 24 h in each case. For the same molecule, the “stimulation of [^35S]GTPγS binding at hM2 (agonist activity)” value in series [12] is reported as “did not stimulate”. The molecule also had a 50% effective concentration (EC50) in series [15] of 257 nM. For the same molecule, the “potency at 5‐HT4 receptor lower than Ki at the hM3 receptor” value in series [15] (selectivity hM3 over 5-HT4) is above 1400 fold. Moreover, the “potency lower than that of tiotropium” value in [2] (from pKB) was found to be 4 fold. Moreover, the “potency greater than that of ipratropium” value in series [2] (pKB vs pA2) worked out at 20 fold. In addition, in [17], the Kb was 0.0933 nM. Further, the Kd in [18] was 0.39 nM; in series [20] it was 4.2 nM; in [27], 1 nM; in series [28] it was 0.46 nM; in [29], 0.0933 nM. In addition, the “potency at histamine H1 receptor lower than Ki at the hM3 receptor” value in series [19] is listed as above 2700 fold. Besides, the “Ca^2+ response when tested alone (agonist activity), hM4‐Gα16” value in [21] (setting [30]) was “no Ca^2+ response”. Also, the duration of bronchodilation in [22] is 24 h. The “Ca^2+ response when tested alone (agonist activity), hM1” value in series [23] (setting [30]) is on record as “no Ca^2+ response”. The inhibition at 1 µM in series [24] came out at 87%. The “Ca^2+ response when tested alone (agonist activity), hM3” value in series [26] (setting [30]) is “no Ca^2+ response”. Also, the “hM3 dissociation t 1/2 shorter than that of tiotropium” value in series [29] is 2.8 fold. The “dissociation t 1/2 M3” value in series [29] (37°C) was 1.37 h.

Take `C[N+]1(C)[C@@H]2C[C@@H](OC(=O)C(O)(c3cccs3)c3cccs3)C[C@H]1[C@@H]1O[C@@H]12` [Tiotropium, reference compound]: the Ki in series [6] was 0.0204 nM; in series [1], 0.105 nM; in series [16], 0.0813 nM; in [21] it was 0.0617 nM. Besides, in series [14], the “offset t 1/2” value is above 20 h. Also, in series [5], the nature of antagonism result is “potent insurmountable antagonist”.

Source of the values: paper PMC5927803 (Pharmacology Research & Perspectives, 2018).
